Tests used:
Settings in all cases: 48 h
P12-Ichikawa [1] = assay: cell viability relative to DMSO control; higher = less cytotoxic
Outline: (§1)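 Before seeding, each leukemia line was adapted for at least four passages in each medium. NOMO1 or SEM cells (500 cells/well) and P12-Ichikawa cells (1000 cells/well) went into 1536-well plates at 5 μl, then received library compounds in DMSO by pin dosing across 11 threefold concentrations, 47 μM to 0.79 nM. Readout was CellTiter-Glo One luminescence after 48 h at 37°C, and viability is given as a per-plate percentage of DMSO wells, with cell-free wells as background.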

SEM cells [2] = assay: as above
Outline: as §1

NOMO1 [3] = assay: as above
Outline: as §1

P12-Ichikawa [4] = assay: AUC of viability dose-response curve (% viability x log10 dose units); higher = less sensitive
Outline: (§2)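 Leukemia cells adapted to each medium were seeded in 1536-well plates (500 or 1000 cells/well) and given library compounds in DMSO for 48 h at 37°C. The 11 threefold doses spanned 47 μM to 0.79 nM, and CellTiter-Glo One luminescence was normalised per plate to DMSO and cell-free wells before four-parameter log-logistic fitting on log10 dose. Area under the curve was integrated with the trapezoidal rule, scaling curves above full viability and removing curves that failed quality control.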

SEM cells [5] = assay: as above
Outline: as §2

NOMO1 [6] = assay: as above
Outline: as §2

CCCCn1c(=O)n(Cc2ccccc2F)c(=O)c2nc(Cc3ccc(NC(C)=O)cc3)[nH]c21
cell viability [%]
Settings	NOMO1 [3]	P12-Ichikawa [1]	SEM cells [2]
HPLM + 10% dialyzed FBS, 0.000781 µM	97.6	93.4	101
HPLM + 10% dialyzed FBS, 0.00234 µM	155	95.6	98.7
HPLM + 10% dialyzed FBS, 0.00702 µM	75.7	94.6	87.6
HPLM + 10% dialyzed FBS, 0.0211 µM	24.9	90.1	109
HPLM + 10% dialyzed FBS, 0.0632 µM	52.4	88.6	104
HPLM + 10% dialyzed FBS, 0.19 µM	77.6	88.8	84.9
HPLM + 10% dialyzed FBS, 0.569 µM	86	89.4	89.8
HPLM + 10% dialyzed FBS, 1.71 µM	76.5	79.6	97
HPLM + 10% dialyzed FBS, 5.12 µM	78.6	85.5	98.2
HPLM + 10% dialyzed FBS, 15.4 µM	68.6	83.3	81.1
HPLM + 10% dialyzed FBS, 46.1 µM	71.2	92.8	93.7
RPMI 5 mM glucose + 10% FBS, 0.000781 µM	82.3	87.9	101
RPMI 5 mM glucose + 10% FBS, 0.00234 µM	82.9	87.8	102
RPMI 5 mM glucose + 10% FBS, 0.00702 µM	78.1	89.9	105
RPMI 5 mM glucose + 10% FBS, 0.0211 µM	79.5	85	89.5
RPMI 5 mM glucose + 10% FBS, 0.0632 µM	82.5	94.5	90.3
RPMI 5 mM glucose + 10% FBS, 0.19 µM	77.8	88.3	86.9
RPMI 5 mM glucose + 10% FBS, 0.569 µM	83.9	82.7	88.1
RPMI 5 mM glucose + 10% FBS, 1.71 µM	82.4	75.5	97.6
RPMI 5 mM glucose + 10% FBS, 5.12 µM	79.5	82.5	92.1
RPMI 5 mM glucose + 10% FBS, 15.4 µM	86.7	79.2	96.1
RPMI 5 mM glucose + 10% FBS, 46.1 µM	76.9	89.1	99.5
RPMI 5 mM glucose + 10% dialyzed FBS, 0.000781 µM	107	88.2	92.9
RPMI 5 mM glucose + 10% dialyzed FBS, 0.00234 µM	108	82.1	91.3
RPMI 5 mM glucose + 10% dialyzed FBS, 0.00702 µM	106	87.2	98.7
RPMI 5 mM glucose + 10% dialyzed FBS, 0.0211 µM	104	91.3	81.5
RPMI 5 mM glucose + 10% dialyzed FBS, 0.0632 µM	125	90.5	110
RPMI 5 mM glucose + 10% dialyzed FBS, 0.19 µM	59.5	78.6	85.5
RPMI 5 mM glucose + 10% dialyzed FBS, 0.569 µM	57.7	86.3	85
RPMI 5 mM glucose + 10% dialyzed FBS, 1.71 µM	89.6	90.7	99
RPMI 5 mM glucose + 10% dialyzed FBS, 5.12 µM	69.4	85.9	97.3
RPMI 5 mM glucose + 10% dialyzed FBS, 15.4 µM	63.8	79.7	90.9
RPMI 5 mM glucose + 10% dialyzed FBS, 46.1 µM	68.8	83	91.8

AUC of viability dose-response curve
Settings	HPLM + 10% dialyzed FBS	RPMI 5 mM glucose + 10% FBS	RPMI 5 mM glucose + 10% dialyzed FBS
P12-Ichikawa [4]	425	409	410
SEM cells [5]	452	442	444

CC(C)(C)C(=O)Oc1ccc2c(c1)nc(NC(=O)c1cccc([N+](=O)[O-])c1)n2CCCO
cell viability [%]
Settings	HPLM + 10% dialyzed FBS	RPMI 5 mM glucose + 10% FBS	RPMI 5 mM glucose + 10% dialyzed FBS
P12-Ichikawa [1], 0.000781 µM	120	–	118
P12-Ichikawa [1], 0.00234 µM	123	–	122
P12-Ichikawa [1], 0.00702 µM	118	–	121
P12-Ichikawa [1], 0.0211 µM	119	–	117
P12-Ichikawa [1], 0.0632 µM	115	–	118
P12-Ichikawa [1], 0.19 µM	119	–	112
P12-Ichikawa [1], 0.569 µM	116	–	115
P12-Ichikawa [1], 1.71 µM	106	–	103
P12-Ichikawa [1], 5.12 µM	109	–	111
P12-Ichikawa [1], 15.4 µM	111	–	97.4
P12-Ichikawa [1], 46.1 µM	106	–	89.4
SEM cells [2], 0.000781 µM	107	130	121
SEM cells [2], 0.00234 µM	122	120	138
SEM cells [2], 0.00702 µM	118	118	122
SEM cells [2], 0.0211 µM	119	112	116
SEM cells [2], 0.0632 µM	110	117	108
SEM cells [2], 0.19 µM	120	126	121
SEM cells [2], 0.569 µM	110	114	101
SEM cells [2], 1.71 µM	104	95.7	81.1
SEM cells [2], 5.12 µM	102	97.5	107
SEM cells [2], 15.4 µM	88.5	105	106
SEM cells [2], 46.1 µM	93.2	118	128

AUC of viability dose-response curve
Settings	NOMO1 [6]	P12-Ichikawa [4]	SEM cells [5]
HPLM + 10% dialyzed FBS	461	460	448
RPMI 5 mM glucose + 10% FBS	459	437	452
RPMI 5 mM glucose + 10% dialyzed FBS	458	445	418

O=C(Nc1ccccc1Br)N[C@@H]1CCN(c2ccc(C(F)(F)F)cn2)C1
cell viability [%], SEM cells [2]
Settings	HPLM + 10% dialyzed FBS	RPMI 5 mM glucose + 10% FBS
0.000781 µM	119	117
0.00234 µM	121	94.6
0.00702 µM	136	107
0.0211 µM	131	122
0.0632 µM	127	113
0.19 µM	121	112
0.569 µM	126	105
1.71 µM	133	112
5.12 µM	122	98.9
15.4 µM	120	106
46.1 µM	117	85

AUC of viability dose-response curve
Settings	NOMO1 [6]	P12-Ichikawa [4]	SEM cells [5]
HPLM + 10% dialyzed FBS	448	448	469
RPMI 5 mM glucose + 10% FBS	432	443	461
RPMI 5 mM glucose + 10% dialyzed FBS	447	454	469
